Source: PMC6270530, “Structural Characterization of de Novo Designed L5K5W Model Peptide Isomers with Potent Antimicrobial and Varied Hemolytic Activities” (Molecules, 2013)
No end group written: not given here.

What was measured:
[1] = tested on: Shigella dysentariae ATCC 9752; format: cell-based; details: broth microdilution, 1–128 μg/mL two-fold dilutions; triplicate, value reproduced twice or three times
Method: (§1) The antimicrobial activity of each peptide was determined against four strains of Gram-positive bacteria (Bacillus subtilis ATCC 6633, Staphylococcus aureus ATCC 6538p, Staphylococcus epidermis ATCC 12228, and Micrococcus luteus ATCC 10240) and five strains of Gram-negative bacteria (Escherichia coli ATCC 25922, Shigella dysentariae ATCC 9752, Salmonella typhomurium ATCC 14028, Klebsiella pneumoniae ATCC 10031, and Pseudomonas aeruginosa ATCC 27853). In addition, a methicillin-resistant Staphylococcus aureus strain, MRSA-TK784 [21, 42], was employed as a multi-drug resistant bacterium. Antimicrobial susceptibility was measured as the minimal inhibitory concentration (MIC), which was determined by the standard broth microdilution method, as described previously. […] The tests were performed in triplicate, and the MIC values that were reproduced twice or three times in the three independent measurements were recorded.

[2] = tested on: all of the 9 strains tested; format: cell-based, Gram-positive and Gram-negative bacteria; details: against all of the 9 strains tested
Method: (§2) Table 1 summarizes the MIC values of our model peptide isomers against various bacterial species, including four Gram-positive, five Gram-negative and a multi-drug resistant strain. […] In addition, all of the peptides were fairly active (MICs ≤ 16 μg/mL) against the MRSA-TK784 strain, which is not susceptible to β-lactam antibiotics and protein synthesis inhibitors and moderately resistant to vancomycin [21, 42].
as §1

[3] = tested on: 5 Gram-negative strains tested; format: cell-based, Gram-negative bacteria; details: against 5 Gram-negative strains tested
Method: as §2, §1

[4] = tested on: 4 Gram-positive strains tested; format: cell-based, Gram-positive bacteria; details: against 4 Gram-positive strains tested
Method: as §2, §1

human red blood cells = format: cell-based
Method: The hemolytic assay was performed as described previously. In brief, suspensions of human red blood cells (10% v/v in PBS) were treated for 1 h with various concentrations (1–128 μg/mL, two-fold serial dilutions) of the peptides. The absorbance of the supernatant was then measured at 550 nm. The relative value to 100% hemolysis of human red blood cells treated with 0.2% Triton X-100 was defined as the percentage of hemolysis. The tests were performed using triplicate samples, and the average values of the three independent measurements were recorded. The minimal hemolytic concentration (MHC) value was determined as the lowest peptide concentration that produces more than 5% hemolysis.

MRSA-TK784 = format: cell-based, methicillin-resistant Staphylococcus aureus; details: Methicillin-Resistant S. aureus; broth microdilution, 1–128 μg/mL two-fold dilutions; triplicate
Method: as §1

| Substance | Minimal inhibitory concentration, S. dysentariae [1] | GM (geometric mean of MICs), Gram (+,−) [2] | GM (geometric mean of MICs), Gram (−) [3] | GM (geometric mean of MICs), Gram (+) [4] | hemolytic activity (in words) (human red blood cells) | Minimal inhibitory concentration, MRSA-TK784 (MRSA-TK784) |
| --- | --- | --- | --- | --- | --- | --- |
| KKLLKKLLKWL-NH2 [W10] | 1 µg/mL | 1.5 µg/mL | 1.7 µg/mL | 1.2 µg/mL |  |  |
| KKLLKWLKKLL-NH2 [W6] | 2 µg/mL | 3.2 µg/mL | 3.5 µg/mL |  | somewhat hemolytic |  |
| KLLKKLLKWLK-NH2 [W9] | 2 µg/mL | 2.3 µg/mL | 2.3 µg/mL | 2.4 µg/mL |  |  |
| KLLKWLKKLLK-NH2 [W5] | 2 µg/mL | 2.3 µg/mL | 2.6 µg/mL | 2.0 µg/mL |  |  |
| KWLKKLLKKLL-NH2 [W2] | 1 µg/mL | 2.3 µg/mL | 2.3 µg/mL | 2.4 µg/mL |  |  |
| LKKLLKKLLKW-NH2 [W11] | 2 µg/mL | 2.9 µg/mL | 3.5 µg/mL | 2.4 µg/mL |  | 16 µg/mL |
| LKKLLKWLKKL-NH2 [W7] | 2 µg/mL | 2.7 µg/mL | 3.0 µg/mL | 2.4 µg/mL |  |  |
| LKWLKKLLKKL-NH2 [W3] | 2 µg/mL | 3.2 µg/mL | 3.5 µg/mL |  |  |  |
| LLKKLLKWLKK-NH2 [W8] | 4 µg/mL | 4.0 µg/mL | 4.6 µg/mL | 3.4 µg/mL |  |  |
| LLKWLKKLLKK-NH2 [W4] | 2 µg/mL | 2.9 µg/mL | 3.5 µg/mL | 2.4 µg/mL |  |  |
| WLKKLLKKLLK-NH2 [W1] | 2 µg/mL | 2.7 µg/mL | 3.0 µg/mL | 2.4 µg/mL |  | 8 µg/mL |
